Test results reported in PMC5390258, “CMD-05, a novel promising clinical anti-diabetic drug candidate, in vivo and vitro studies” (Scientific Reports, 2017).
Read-outs that look alike come from different tables or passages of the source.

Columns and labels:
[1] = molecular target: T1, recombinant human DPP-IV (Homo sapiens, UniProt P27487); experiment: Recombinant human DPP-IV activity assay; assay type: biochemical; settings: Gly-Pro-MCA substrate, read-out: IC50 of DPP-IV inhibition
T1 construct: purchased R&D systems, USA
Experimental: DPP-IV inhibition assay was carried out using either 5 ng purified recombinant human DPP-IV (rhDPP-IV) (R&D systems, USA). Recombinant DPP-IV was mixed with ddH2O in an assay buffer (25 mM Tris-HCl, 0.2 M NaCl, 0.1% BSA, pH 7.3). […] The vehicle comprised 1% DMSO in place of test compounds. […] The fluorescence intensity of AMC corresponded to DPP-IV activity.

[2] = tested on: model rats (HFD/low-dose STZ, T2DM); experiment: Oral glucose tolerance test (OGTT) in HFD/STZ T2DM model rats; assay type: in vivo, rat; settings: for percentage reduction of blood glucose levels in OGTT: model rats
Experimental: (§1) To establish model of T2DM, male rats (80–100 g, 9-week-old)[49] were fed high fat diet (HFD) (20% sugar, 10% lard, 10% egg yolk and 60% basal feed) after a week of normal diet. After 4 weeks, rats were injected once with low-dose streptozotocin (Solarbio, China) (STZ, 30 mg/kg i.p) to induce partial insulin deficiency, and then continuously fed HFD for 4 weeks after injection of STZ. Then the model rats were oral administrated drugs for 30 days. The body weights were recorded once a week.
On the 1st day, 19th days and 29th days of treatment, oral glucose tolerance tests for model rats were carried out. […] The blood glucose levels were tested using Johnson one touch Ultra Test Strips on Johnson Performa blood glucose meter.

[3] = tested on: insulin; experiment: Plasma insulin levels in model rats (ELISA); assay type: in vivo, rat; settings: 1.5 and 4.5 mg/kg, fasted, glucose load and random plasma
Experimental: as §1
(§2) Oral glucose load, fasted and random blood samples were collected from rats on the 28th days, the 29th days and the last of the treatment of drugs, respectively. Plasma levels of insulin and GLP-1 were measured by ELISA kits (YuanYe, China) according to the manufacturer’s recommendation. The levels of HbA1c, Triglycerides (TG), total cholesterol (TC) and low density lipoprotein cholesterol (LDL-C) in blood samples were measured by commercial assay kits (JianCheng, Nanjing, China) according to the manufacturer’s directions.

[4] = tested on: TG, LDL-C; experiment: TG and LDL-C plasma levels in model rats; assay type: in vivo, rat
Experimental: as §1, §2

[5] = tested on: pancreatic islets; experiment: Morphologic observation on islet of model rats (HE, immunofluorescence, TEM); assay type: in vivo, rat
Experimental: HE staining on paraffin section was performed as described in reports. In brief, paraffin section were rinsed with PBS, fixed with 4% paraformaldehyde (PFA) for 30 min and then washed by PBS. The pancreas tissue were stained with Hematoxylin-Eosin, afterwards, they were dehydrated in alcohols. Morphological changes of the pancreas tissue were observed under an optical microscope (Olympus, Japan) after mounted by neutral resins.
Pancreas sections (8 μm) were cut in a cryostat and collected on superfrost microscope slides. The slides were stored at −20 °C till analysis. Immunofluorescent staining was used for detection of insulin (β cells) (1:100, Anti-Insulin antibody, Abcam), glucagon (α cells) (1:200, Anti-glucagon, Abcam). Briefly, the slides were blocked in 5% normal goat serum for 1 h in a humidified chamber. Slides were exposed to primary antibodies at a dilution of […] in antibody diluting solution at 4 °C overnight, washed in PBS, and exposed to appropriate secondary antibodies linked to the fluorescent probes (Goat Anti-Guinea pig IgG/FITC and Alexa Fluor 594-conjugated Goat Anti-Rabbit IgG) (Bioss and Proteintech, China) in antibody diluting solution for 1 h and DAPI (Beyotime, China) for 5 min in the dark. After washed by PBS, slides were mounted with a glycerol mounting medium. Images were collected using a fluorescent microscope (Nikon, Japan).
For transmission electron microscopy, about 1 mm^3 tissue specimens were obtained from the same pancreas region of the control and experimental groups of rats, and fixed overnight in 2% glutaraldehyde (pH7.3) in 0.1 M phosphate buffer saline at 4 °C. Images of pancreatic islets were captured from random tissue sections using a transmission electron microscope.

[6] = tested on: INS-1 cells; experiment: Apoptosis of INS-1 cells induced by STZ (Annexin V/PI flow cytometry); assay type: cell-based, rat; settings: STZ-induced, 1, 10, 100 μM, 36 h, concentration dependent
Experimental: The INS cells were seeded into 6-well culture plates at 3 × 10^4 cells per ml and incubated at 37 °C for 24 h. […] After incubated for 36 h, apoptosis was assessed by flow cytometry using the Annexin V-FITC/ propidium iodide (Annexin V/PI) apoptosis detection kit according to the manufacturer’s protocol.

[7] = Pharmacokinetics in rats; assay type: in vivo, rat
Experimental: Male SD rats (200–220 g) were fasted overnight to administration of CMD-05 intravenously via tail vein (50 mg/kg, n = 4) or by oral gavage (50 mg/kg, n = 4). Blood samples of 0.3 ml were collected from the orbital venous at 1 min, 3 min, 5 min, 15 min, 30 min, 60 min, 120 min, 240 min, 480 min, 720 min after tail vein injection of CMD-05 and at 15 min, 30 min, 45 min, 60 min, 120 min, 240 min, 480 min, 720 min after oral of CMD-05. Plasma was obtained after centrifugation. The concentrations of CMD-05 in plasma were determined by HPLC method. The pharmacokinetic parameters of CMD-05 in the rats were analyzed by DAS2 software.

[8] = tested on: HT22 cells; experiment: Cytotoxicity in HT22 cells (CCK-8); assay type: cell-based; settings: 3 × 10^−6 to 3 × 10^−5 M, 12 h
Experimental: (§3) The toxicities of CMD-05 on HT22, 293 and […] cell lines was assessed using Cell Counting Kit-8 (CCK-8) (Biosharp, China). Briefly, the cells were plated on 96-well plates. […] The absorbance at 450 nm was measured using a microplate spectrophotometer.

[9] = tested on: LO-2 cells; experiment: Cytotoxicity in LO-2 cells (CCK-8); assay type: cell-based; settings: 1 × 10^−4 M, 12 h
Experimental: as §3

T1 sequence (P27487 whole entry): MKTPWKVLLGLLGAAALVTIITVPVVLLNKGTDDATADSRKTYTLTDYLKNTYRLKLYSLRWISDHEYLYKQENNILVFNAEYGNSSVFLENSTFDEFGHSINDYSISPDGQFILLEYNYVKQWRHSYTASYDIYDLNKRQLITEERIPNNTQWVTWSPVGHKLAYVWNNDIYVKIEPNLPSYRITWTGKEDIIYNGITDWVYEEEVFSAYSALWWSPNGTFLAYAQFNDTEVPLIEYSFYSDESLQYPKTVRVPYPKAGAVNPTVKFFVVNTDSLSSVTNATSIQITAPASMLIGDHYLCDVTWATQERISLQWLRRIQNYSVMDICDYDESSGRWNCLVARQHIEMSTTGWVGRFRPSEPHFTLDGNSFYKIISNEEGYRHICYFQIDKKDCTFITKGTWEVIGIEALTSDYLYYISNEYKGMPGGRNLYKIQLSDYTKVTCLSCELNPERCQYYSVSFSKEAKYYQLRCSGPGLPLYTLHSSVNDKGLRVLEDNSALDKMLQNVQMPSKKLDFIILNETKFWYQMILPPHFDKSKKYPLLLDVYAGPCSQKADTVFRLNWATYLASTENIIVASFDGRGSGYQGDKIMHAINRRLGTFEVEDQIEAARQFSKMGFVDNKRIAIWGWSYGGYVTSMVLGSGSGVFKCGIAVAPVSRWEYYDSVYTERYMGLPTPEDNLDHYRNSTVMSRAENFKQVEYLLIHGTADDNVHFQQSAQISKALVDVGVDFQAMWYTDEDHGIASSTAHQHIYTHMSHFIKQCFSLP

SMILES: N#C[C@@H]1CCCN1C(=O)CN(C(=O)CCCCCl)C12CC3CC(CC(O)(C3)C1)C2 [CMD-05]
- IC50 [1]: 12 nM
- percentage reduction of blood glucose levels in OGTT ([2]; 1.5 mg/kg oral, 1st day): 8.0%
- percentage reduction of blood glucose levels in OGTT ([2]; 1.5 mg/kg oral, 19th day): 9.22%
- percentage reduction of blood glucose levels in OGTT ([2]; 1.5 mg/kg oral, 29th day): 17.8%
- percentage reduction of blood glucose levels in OGTT ([2]; 4.5 mg/kg oral, 1st day): 9.7%
- percentage reduction of blood glucose levels in OGTT ([2]; 4.5 mg/kg oral, 19th day): 12.2%
- percentage reduction of blood glucose levels in OGTT ([2]; 4.5 mg/kg oral, 29th day): 21.9%
- AUC (area under the blood glucose curve) in OGTT ([2]; 1st, 19th and 29th day, vs model group): significant decrease
- insulin levels in plasma [3]: significantly increased
- reduction of LDL-C level ([4]; 0.5 mg/kg): 9%
- reduction of TG level ([4]; 0.5 mg/kg): 22.41%
- reduction of LDL-C level ([4]; 1.5 mg/kg): 12.60%
- reduction of TG level ([4]; 1.5 mg/kg): 37.07%
- reduction of LDL-C level ([4]; 4.5 mg/kg): 17.91%
- reduction of TG level ([4]; 4.5 mg/kg): 42.67%
- plasma lipids levels ([4]; 4.5 mg/kg continuously for 30 days): decreased to normal level
- distribution of β cells (insulin/glucagon double staining) ([5]; 30 days treatment): obviously improved
- mass of α-cells (insulin/glucagon double staining) ([5]; 30 days treatment): mildly reduced
- morphology of pancreatic islets (HE staining) ([5]; 30 days treatment): prevent islet from damage
- secretory granules in β cells (transmission electron microscopy) ([5]; compared with the model): obviously increased
- apoptosis of INS-1 cells [6]: reduce of apoptosis
- effect of food on pharmacokinetics ([7]; healthy rats): not affected by food
- half-life ([7]; male, SD, rat, plasma, oral, 50 mg/kg, rats, 50 mg/kg, read-out: half-life): 288 min
- Tmax ([7]; male, SD, rat, plasma, po, 50 mg/kg, rats, single oral 50 mg/kg, read-out: time to peak plasma concentration (converted)): 30 min
- bioavailability ([7]; male, SD, rat, plasma, rats, 50 mg/kg oral vs intravenous, read-out: absolute bioavailability): 84.5%
- half-life ([7]; rats, 50 mg/kg): 287.9 ± 26.2 min
- time to peak plasma concentration ([7]; rats, single oral 50 mg/kg, 50 mg/kg): 30 to 45 min
- cytotoxicity (cell viability) [8]: did not induce significant cytotoxicity
- cytotoxicity (cell viability) [9]: no detectable toxic effect
